Source: patent publication US4426382A, “4-Amino-6,7-dimethoxy-2-piperazinylquinazoline derivatives, their preparation and use” (Sankyo Company Limited, priority 1980, dated 1984)
Structures can show the parent of a compound that is named as a salt.

Test system: spontaneously hypertensive rats
Test: antihypertensive activity: blood pressure after oral administration to conscious spontaneously hypertensive rats
Assay type: in vivo
Details: male spontaneously hypertensive rats
Method: The animals used in this test were 15 week old male spontaneously hypertensive rats. 3-5 rats were used to test each concentration of each compound. Each animal was treated as follows. […] A polyethylene cannula was then inserted into the abdominal aorta by the method of Weeks and Jones [J. R. Weeks and J. A. Jones, Proc. Soc. […] The other end of the cannula, leading out of the body, was fixed to the neck. One week after the operation, when the animal had recovered from post-operative invasion, this end of the cannula was connected to an apparatus to measure the blood pressure and heart beat directly without the need for any further anesthesia or restraint. The haemomanometer used was an improved type of that originated by Laffan et al. [P. J. Laffan, A. Peterson, S. W. Hitch and C.
The compound under test was suspended at the desired concentration in a 0.3% w/v aqueous solution of carboxymethylcellulose and administered orally in a volume of 2 ml/kg body weight. […] After administration of the sample, the blood pressure and heart beat of each animal were measured for 24 hours at 15 minute intervals.
For purposes of comparison, the same experiment was carried out with various concentrations of the known hypotensive agent, prazosin, in the form of its hydrochloride.
Δmax =Maximum change in blood pressure (mm/Hg) after administration of the compound under test;
Tmax =Time (in hours) after administration of the compound under test required for the blood pressure to obtain a maximum change;
T0.5 max =Time (in hours) after administration of the compound under test for the blood pressure to return to one-half of its maximum value.

COc1cc2nc(N3CCN(C(=O)[C@@H]4C[C@H]4c4ccccc4)CC3)nc(N)c2cc1OC (relative stereo) [34 hydrochloride hydrate]
T0.5 max, time after administration for the blood pressure to return to one-half of its maximum value (dose 3 mg/kg oral): 8 h | Tmax, time after administration required for the blood pressure to obtain a maximum change (dose 3 mg/kg oral): 1 h | Δmax, maximum change in blood pressure after administration (dose 3 mg/kg oral): -33 mmHg | T0.5 max, time after administration for the blood pressure to return to one-half of its maximum value (dose 10 mg/kg oral): 12 h | Tmax, time after administration required for the blood pressure to obtain a maximum change (dose 10 mg/kg oral): 2 h | Δmax, maximum change in blood pressure after administration (dose 10 mg/kg oral): -50 mmHg

CC=CC(=O)N1CCN(c2nc(N)c3cc(OC)c(OC)cc3n2)CC1 [1 hydrochloride hydrate]
T0.5 max, time after administration for the blood pressure to return to one-half of its maximum value (dose 3 mg/kg oral): 8 h | Tmax, time after administration required for the blood pressure to obtain a maximum change (dose 3 mg/kg oral): 0.25 h | Δmax, maximum change in blood pressure after administration (dose 3 mg/kg oral): -35 mmHg | T0.5 max, time after administration for the blood pressure to return to one-half of its maximum value (dose 30 mg/kg oral): 12 h | Tmax, time after administration required for the blood pressure to obtain a maximum change (dose 30 mg/kg oral): 0.5 h | Δmax, maximum change in blood pressure after administration (dose 30 mg/kg oral): -40 mmHg

CCC=CC(=O)N1CCN(c2nc(N)c3cc(OC)c(OC)cc3n2)CC1 [5 hydrochloride]
Tmax, time after administration required for the blood pressure to obtain a maximum change (dose 3 mg/kg oral): 0.5 h | Δmax, maximum change in blood pressure after administration (dose 3 mg/kg oral): -40 mmHg | T0.5 max, time after administration for the blood pressure to return to one-half of its maximum value (dose 3 mg/kg oral, 3 mg/kg): 7 h | T0.5 max, time after administration for the blood pressure to return to one-half of its maximum value (dose 30 mg/kg oral, 30 mg/kg): 14 h | Tmax, time after administration required for the blood pressure to obtain a maximum change (dose 30 mg/kg oral, 30 mg/kg): 0.75 h | Δmax, maximum change in blood pressure after administration (dose 30 mg/kg oral, 30 mg/kg): -48 mmHg

CC=CC(=O)N1CCCN(c2nc(N)c3cc(OC)c(OC)cc3n2)CC1 [9 hydrochloride hydrate]
T0.5 max, time after administration for the blood pressure to return to one-half of its maximum value (dose 3 mg/kg oral): 3.5 h | Tmax, time after administration required for the blood pressure to obtain a maximum change (dose 3 mg/kg oral): 0.5 h | Δmax, maximum change in blood pressure after administration (dose 3 mg/kg oral): -25 mmHg | T0.5 max, time after administration for the blood pressure to return to one-half of its maximum value (dose 30 mg/kg oral): 5 h | Tmax, time after administration required for the blood pressure to obtain a maximum change (dose 30 mg/kg oral): 0.75 h | Δmax, maximum change in blood pressure after administration (dose 30 mg/kg oral): -35 mmHg

COc1cc2nc(N3CCN(C(=O)c4ccc(OCc5ccccc5)cc4)CC3)nc(N)c2cc1OC [14 hydrochloride dihydrate]
T0.5 max, time after administration for the blood pressure to return to one-half of its maximum value (dose 3 mg/kg oral): 9.5 h | Tmax, time after administration required for the blood pressure to obtain a maximum change (dose 3 mg/kg oral): 6 h | Δmax, maximum change in blood pressure after administration (dose 3 mg/kg oral): -18 mmHg | T0.5 max, time after administration for the blood pressure to return to one-half of its maximum value (dose 10 mg/kg oral): 12 h | Tmax, time after administration required for the blood pressure to obtain a maximum change (dose 10 mg/kg oral): 6 to 7 h | Δmax, maximum change in blood pressure after administration (dose 10 mg/kg oral): -29 mmHg | T0.5 max, time after administration for the blood pressure to return to one-half of its maximum value (dose 30 mg/kg oral): 15 h | Tmax, time after administration required for the blood pressure to obtain a maximum change (dose 30 mg/kg oral): 6 to 7 h | Δmax, maximum change in blood pressure after administration (dose 30 mg/kg oral): -35 mmHg

COc1cc2nc(N3CCN(C(=O)C(C)Oc4ccccc4)CC3)nc(N)c2cc1OC (stereo not drawn) [25 hydrochloride hemihydrate]
T0.5 max, time after administration for the blood pressure to return to one-half of its maximum value (dose 1 mg/kg oral): 7 h | Tmax, time after administration required for the blood pressure to obtain a maximum change (dose 1 mg/kg oral): 1 h | Δmax, maximum change in blood pressure after administration (dose 1 mg/kg oral): -40 mmHg | T0.5 max, time after administration for the blood pressure to return to one-half of its maximum value (dose 3 mg/kg oral): 14 h | Tmax, time after administration required for the blood pressure to obtain a maximum change (dose 3 mg/kg oral): 1 h | Δmax, maximum change in blood pressure after administration (dose 3 mg/kg oral): -70 mmHg

COc1cc2nc(N3CCN(C(=O)COc4ccccc4)CC3)nc(N)c2cc1OC [27 hydrochloride hydrate]
T0.5 max, time after administration for the blood pressure to return to one-half of its maximum value (dose 3 mg/kg oral): 8 h | Tmax, time after administration required for the blood pressure to obtain a maximum change (dose 3 mg/kg oral): 5 h | Δmax, maximum change in blood pressure after administration (dose 3 mg/kg oral): -20 mmHg | T0.5 max, time after administration for the blood pressure to return to one-half of its maximum value (dose 30 mg/kg oral): 8 h | Tmax, time after administration required for the blood pressure to obtain a maximum change (dose 30 mg/kg oral): 5 h | Δmax, maximum change in blood pressure after administration (dose 30 mg/kg oral): -40 mmHg

COc1cc2nc(N3CCN(C(=O)Cc4ccccc4)CC3)nc(N)c2cc1OC [28 hydrochloride hydrate]
T0.5 max, time after administration for the blood pressure to return to one-half of its maximum value (dose 3 mg/kg oral): 9 h | Tmax, time after administration required for the blood pressure to obtain a maximum change (dose 3 mg/kg oral): 1 h | Δmax, maximum change in blood pressure after administration (dose 3 mg/kg oral): -30 mmHg | T0.5 max, time after administration for the blood pressure to return to one-half of its maximum value (dose 30 mg/kg oral): 10 h | Tmax, time after administration required for the blood pressure to obtain a maximum change (dose 30 mg/kg oral): 4 h | Δmax, maximum change in blood pressure after administration (dose 30 mg/kg oral): -50 mmHg

COc1cc2nc(N3CCN(C(=O)CCc4ccccc4)CC3)nc(N)c2cc1OC [29 hydrochloride hydrate]
T0.5 max, time after administration for the blood pressure to return to one-half of its maximum value (dose 3 mg/kg oral): 8 h | Tmax, time after administration required for the blood pressure to obtain a maximum change (dose 3 mg/kg oral): 2 h | Δmax, maximum change in blood pressure after administration (dose 3 mg/kg oral): -30 mmHg | T0.5 max, time after administration for the blood pressure to return to one-half of its maximum value (dose 30 mg/kg oral): 12 h | Tmax, time after administration required for the blood pressure to obtain a maximum change (dose 30 mg/kg oral): 5 h | Δmax, maximum change in blood pressure after administration (dose 30 mg/kg oral): -45 mmHg

COc1cc2nc(N3CCN(C(=O)C=C4CCCCC4)CC3)nc(N)c2cc1OC [31 hydrochloride hydrate]
T0.5 max, time after administration for the blood pressure to return to one-half of its maximum value (dose 3 mg/kg oral): 10 h | Tmax, time after administration required for the blood pressure to obtain a maximum change (dose 3 mg/kg oral): 1 to 2 h | Δmax, maximum change in blood pressure after administration (dose 3 mg/kg oral): -25 mmHg | T0.5 max, time after administration for the blood pressure to return to one-half of its maximum value (dose 30 mg/kg oral): 14 h | Tmax, time after administration required for the blood pressure to obtain a maximum change (dose 30 mg/kg oral): 1 to 2 h | Δmax, maximum change in blood pressure after administration (dose 30 mg/kg oral): -40 mmHg

COc1cc2nc(N3CCN(C(=O)C=C4CCCC4)CC3)nc(N)c2cc1OC [32 hydrochloride hydrate]
T0.5 max, time after administration for the blood pressure to return to one-half of its maximum value (dose 3 mg/kg oral): 10 h | Tmax, time after administration required for the blood pressure to obtain a maximum change (dose 3 mg/kg oral): 1 to 2 h | Δmax, maximum change in blood pressure after administration (dose 3 mg/kg oral): -40 mmHg | T0.5 max, time after administration for the blood pressure to return to one-half of its maximum value (dose 30 mg/kg oral): 7 h | Tmax, time after administration required for the blood pressure to obtain a maximum change (dose 30 mg/kg oral): 1 to 2 h | Δmax, maximum change in blood pressure after administration (dose 30 mg/kg oral): -80 mmHg

COc1cc2nc(N3CCN(C(=O)C4(c5ccccc5)CC4)CC3)nc(N)c2cc1OC [33 hydrochloride hydrate]
T0.5 max, time after administration for the blood pressure to return to one-half of its maximum value (dose 30 mg/kg oral): 8.5 h | Tmax, time after administration required for the blood pressure to obtain a maximum change (dose 30 mg/kg oral): 1 h | Δmax, maximum change in blood pressure after administration (dose 30 mg/kg oral): -50 mmHg

COc1cc2nc(N3CCN(C(=O)c4ccc(OCc5ccccc5)c(OC)c4)CC3)nc(N)c2cc1OC [94 hydrochloride hemihydrate]
T0.5 max, time after administration for the blood pressure to return to one-half of its maximum value (dose 30 mg/kg oral): 7 h | Tmax, time after administration required for the blood pressure to obtain a maximum change (dose 30 mg/kg oral): 5 h | Δmax, maximum change in blood pressure after administration (dose 30 mg/kg oral): -28 mmHg

COc1cc2nc(N3CCN(C(=O)c4ccc(OCc5ccccc5)c(Cl)c4)CC3)nc(N)c2cc1OC [98 hydrochloride hemihydrate]
T0.5 max, time after administration for the blood pressure to return to one-half of its maximum value (dose 30 mg/kg oral): 8 h | Tmax, time after administration required for the blood pressure to obtain a maximum change (dose 30 mg/kg oral): 4 h | Δmax, maximum change in blood pressure after administration (dose 30 mg/kg oral): -30 mmHg

COc1cc2nc(N3CCN(C(=O)c4ccc(OC(C)c5ccccc5)cc4)CC3)nc(N)c2cc1OC (stereo not drawn) [103 hydrochloride sesquihydrate]
T0.5 max, time after administration for the blood pressure to return to one-half of its maximum value (dose 10 mg/kg oral): 9.5 h | Tmax, time after administration required for the blood pressure to obtain a maximum change (dose 10 mg/kg oral): 5 to 6 h | Δmax, maximum change in blood pressure after administration (dose 10 mg/kg oral): -30 mmHg | T0.5 max, time after administration for the blood pressure to return to one-half of its maximum value (dose 30 mg/kg oral): 13 h | Tmax, time after administration required for the blood pressure to obtain a maximum change (dose 30 mg/kg oral): 5 to 6 h | Δmax, maximum change in blood pressure after administration (dose 30 mg/kg oral): -41 mmHg

C=C(C)C(=O)N1CCN(c2nc(N)c3cc(OC)c(OC)cc3n2)CC1 [Compound No. 2, 4-Amino-6,7-dimethoxy-2-[4-(2-methylacryloyl)-1-piperazinyl]quinazoline]
T0.5 max, time after administration for the blood pressure to return to one-half of its maximum value (dose 3 mg/kg oral): 3.5 h | Tmax, time after administration required for the blood pressure to obtain a maximum change (dose 3 mg/kg oral): 0.75 h | Δmax, maximum change in blood pressure after administration (dose 3 mg/kg oral): -25 mmHg | T0.5 max, time after administration for the blood pressure to return to one-half of its maximum value (dose 30 mg/kg oral): 9 h | Tmax, time after administration required for the blood pressure to obtain a maximum change (dose 30 mg/kg oral): 0.5 h | Δmax, maximum change in blood pressure after administration (dose 30 mg/kg oral): -35 mmHg
